For series [1], the target named is Metabotropic glutamate receptor 5 (Homo sapiens, UniProt P41594). The series can be described thus: Negative allosteric modulation of human recombinant mGluR5 expressed in HEK293 cells assessed as L-glutamate-induced intracellular calcium mobilization incubated for 20 mins before L-glutamate addition. The class given is functional, cell-based.
The next series has as its system Mus musculus. The series can be described thus: Antidepressant activity in CD1(ICR) mouse assessed as decrease in immobility time at 60 mg/kg, po after 1 hr by tail suspension test. Type of series: functional, organism-based.
For the next series, the target named is T1, Cytochrome P450 2C8 (Homo sapiens, UniProt P10632).
T1 sequence (P10632 whole entry): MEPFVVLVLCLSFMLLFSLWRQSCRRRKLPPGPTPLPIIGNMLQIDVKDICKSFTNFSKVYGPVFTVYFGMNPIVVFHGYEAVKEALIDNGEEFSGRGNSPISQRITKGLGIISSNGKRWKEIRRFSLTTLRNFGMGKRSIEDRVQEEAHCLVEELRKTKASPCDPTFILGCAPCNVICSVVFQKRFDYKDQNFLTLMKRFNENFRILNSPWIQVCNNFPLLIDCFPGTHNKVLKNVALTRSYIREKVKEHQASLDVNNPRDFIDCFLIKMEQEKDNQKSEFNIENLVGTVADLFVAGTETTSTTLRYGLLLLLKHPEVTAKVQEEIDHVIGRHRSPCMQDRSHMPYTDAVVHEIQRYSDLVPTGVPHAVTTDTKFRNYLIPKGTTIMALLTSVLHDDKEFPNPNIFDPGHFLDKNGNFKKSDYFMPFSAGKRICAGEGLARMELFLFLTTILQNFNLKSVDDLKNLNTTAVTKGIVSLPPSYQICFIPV
The series is described as follows: Inhibition of CYP2C8 in human liver microsomes using amodiaquin as substrate after 10 mins in presence of NADPH by LC/MS/MS analysis. The class given is ADME.

The target in the next series is Cytochrome P450 3A4 (Homo sapiens, UniProt P08684). The series can be described thus: Inhibition of CYP3A4 in human liver microsomes using midazolam as substrate after 10 mins in presence of NADPH by LC/MS/MS analysis. Type of series: ADME.
Series [2] can be described thus: Metabolic stability in human liver microsomes assessed as compound remaining at 1 uM after 30 mins in presence of NADPH by LC/MS/MS analysis. Type of series: ADME, Microsome. Particulars: read-out: Stability.
The next series has as its target Cytochrome P450 2D6 (Homo sapiens, UniProt P10635). The series can be described thus: Inhibition of CYP2D6 in human liver microsomes using bufuralol as substrate after 10 mins in presence of NADPH by LC/MS/MS analysis. The class given is ADME.
A further series deals with Cytochrome P450 2C19 (Homo sapiens, UniProt P33261). The series can be described thus: Inhibition of CYP2C19 in human liver microsomes using (S)-mephenytoin as substrate after 10 mins in presence of NADPH by LC/MS/MS analysis. Type of series: ADME.
Series [3] in a line: Aqueous solubility of the compound at pH 7.4. Type of series: physicochemical.
Series [4] can be described thus: Metabolic stability in rat liver microsomes assessed as compound remaining at 1 uM after 30 mins in presence of NADPH by LC/MS/MS analysis. Particulars: read-out: Stability. The class given is ADME, Microsome.
In the next series the target is T2, Cytochrome P450 2A6 (Homo sapiens, UniProt P11509).
T2 sequence (P11509 whole entry): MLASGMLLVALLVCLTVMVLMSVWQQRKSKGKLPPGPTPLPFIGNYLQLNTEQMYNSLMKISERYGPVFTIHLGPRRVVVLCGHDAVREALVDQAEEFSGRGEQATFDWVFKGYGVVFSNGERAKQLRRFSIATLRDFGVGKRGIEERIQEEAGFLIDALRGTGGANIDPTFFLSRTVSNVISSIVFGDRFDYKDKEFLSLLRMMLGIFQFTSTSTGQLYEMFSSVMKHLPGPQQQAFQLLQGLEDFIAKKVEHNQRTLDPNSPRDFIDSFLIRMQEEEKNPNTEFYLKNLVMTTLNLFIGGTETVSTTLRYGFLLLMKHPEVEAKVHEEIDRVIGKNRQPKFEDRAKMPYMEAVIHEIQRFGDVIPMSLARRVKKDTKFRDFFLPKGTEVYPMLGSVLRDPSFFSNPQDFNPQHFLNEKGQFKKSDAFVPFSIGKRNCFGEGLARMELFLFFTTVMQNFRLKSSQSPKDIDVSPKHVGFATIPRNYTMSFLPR
The series can be described thus: Inhibition of CYP2A6 in human liver microsomes using coumarin as substrate after 10 mins in presence of NADPH by LC/MS/MS analysis. Type of series: ADME.

In the next series the target is Cytochrome P450 2C9 (Homo sapiens, UniProt P11712). The series can be described thus: Inhibition of CYP2C9 in human liver microsomes using diclofenac as substrate after 10 mins in presence of NADPH by LC/MS/MS analysis. The class given is ADME.
A further series addresses T3, Cytochrome P450 1A2 (Homo sapiens, UniProt P05177).
T3 sequence (P05177 whole entry): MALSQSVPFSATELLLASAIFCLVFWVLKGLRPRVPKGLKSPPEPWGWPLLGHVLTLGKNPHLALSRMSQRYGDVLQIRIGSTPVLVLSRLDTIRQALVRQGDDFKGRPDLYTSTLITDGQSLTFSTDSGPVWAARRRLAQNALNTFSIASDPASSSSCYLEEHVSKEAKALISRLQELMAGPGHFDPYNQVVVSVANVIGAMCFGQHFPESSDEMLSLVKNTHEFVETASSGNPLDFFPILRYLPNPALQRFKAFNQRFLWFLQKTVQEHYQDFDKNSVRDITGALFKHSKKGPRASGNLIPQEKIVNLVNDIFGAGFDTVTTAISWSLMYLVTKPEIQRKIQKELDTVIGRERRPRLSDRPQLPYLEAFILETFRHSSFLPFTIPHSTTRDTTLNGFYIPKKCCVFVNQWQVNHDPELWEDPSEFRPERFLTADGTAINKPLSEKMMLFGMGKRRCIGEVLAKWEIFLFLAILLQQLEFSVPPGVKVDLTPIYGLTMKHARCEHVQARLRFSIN
The series can be described thus: Inhibition of CYP1A2 in human liver microsomes using phenacetin as substrate after 10 mins in presence of NADPH by LC/MS/MS analysis. The class given is ADME.

A short description of series [5]: Aqueous solubility of the compound at pH 1.2. Type of series: physicochemical.

Values after ≈ are worked out from the molar mass of the structure shown. Active and inactive are the calls of the source. No cut-off for these calls is given here.

Metabotropic glutamate receptor 5, sequence (P41594 whole entry): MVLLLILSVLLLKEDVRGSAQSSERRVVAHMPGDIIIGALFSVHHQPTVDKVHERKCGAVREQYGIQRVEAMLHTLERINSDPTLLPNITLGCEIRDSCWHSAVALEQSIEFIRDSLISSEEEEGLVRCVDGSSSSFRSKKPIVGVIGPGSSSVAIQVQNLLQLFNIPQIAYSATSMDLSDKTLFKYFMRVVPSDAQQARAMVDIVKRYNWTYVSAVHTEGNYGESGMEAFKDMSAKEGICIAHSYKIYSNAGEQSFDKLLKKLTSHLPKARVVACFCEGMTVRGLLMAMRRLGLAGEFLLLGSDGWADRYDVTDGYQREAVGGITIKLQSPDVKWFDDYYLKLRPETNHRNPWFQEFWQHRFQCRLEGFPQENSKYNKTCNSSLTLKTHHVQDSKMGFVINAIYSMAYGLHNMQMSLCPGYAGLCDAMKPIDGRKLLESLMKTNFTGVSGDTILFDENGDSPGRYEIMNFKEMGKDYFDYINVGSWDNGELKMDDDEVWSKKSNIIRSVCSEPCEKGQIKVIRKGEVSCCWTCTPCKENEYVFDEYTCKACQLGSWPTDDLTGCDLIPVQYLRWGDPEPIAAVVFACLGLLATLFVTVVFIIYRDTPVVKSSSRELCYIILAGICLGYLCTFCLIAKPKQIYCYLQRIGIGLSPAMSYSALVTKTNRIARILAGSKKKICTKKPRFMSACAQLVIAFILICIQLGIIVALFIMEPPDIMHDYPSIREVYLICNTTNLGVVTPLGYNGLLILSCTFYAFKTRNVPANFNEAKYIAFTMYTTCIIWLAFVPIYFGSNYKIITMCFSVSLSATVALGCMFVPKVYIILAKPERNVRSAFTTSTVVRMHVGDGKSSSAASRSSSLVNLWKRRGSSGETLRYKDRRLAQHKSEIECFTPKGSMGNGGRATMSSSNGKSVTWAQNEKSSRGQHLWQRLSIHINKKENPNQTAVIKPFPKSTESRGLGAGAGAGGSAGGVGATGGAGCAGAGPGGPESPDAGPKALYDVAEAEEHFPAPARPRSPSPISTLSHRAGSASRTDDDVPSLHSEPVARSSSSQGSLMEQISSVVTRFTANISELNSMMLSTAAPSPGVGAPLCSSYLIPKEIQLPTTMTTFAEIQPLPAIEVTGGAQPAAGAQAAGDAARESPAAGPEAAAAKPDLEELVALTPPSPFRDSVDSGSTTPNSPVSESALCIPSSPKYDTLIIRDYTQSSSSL
Cytochrome P450 3A4, sequence (P08684 whole entry): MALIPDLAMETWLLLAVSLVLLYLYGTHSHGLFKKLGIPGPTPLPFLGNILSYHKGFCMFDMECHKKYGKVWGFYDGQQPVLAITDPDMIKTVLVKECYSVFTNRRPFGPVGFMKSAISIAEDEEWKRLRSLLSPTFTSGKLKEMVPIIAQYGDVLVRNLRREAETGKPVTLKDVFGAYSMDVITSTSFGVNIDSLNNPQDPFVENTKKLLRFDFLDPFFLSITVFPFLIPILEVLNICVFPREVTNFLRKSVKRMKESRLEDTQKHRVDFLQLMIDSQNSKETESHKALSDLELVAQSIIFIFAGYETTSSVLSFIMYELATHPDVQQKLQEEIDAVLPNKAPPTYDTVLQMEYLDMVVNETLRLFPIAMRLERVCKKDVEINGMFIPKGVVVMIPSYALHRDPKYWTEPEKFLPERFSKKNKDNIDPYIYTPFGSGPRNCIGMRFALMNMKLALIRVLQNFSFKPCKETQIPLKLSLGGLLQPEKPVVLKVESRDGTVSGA
Cytochrome P450 2D6, sequence (P10635 whole entry): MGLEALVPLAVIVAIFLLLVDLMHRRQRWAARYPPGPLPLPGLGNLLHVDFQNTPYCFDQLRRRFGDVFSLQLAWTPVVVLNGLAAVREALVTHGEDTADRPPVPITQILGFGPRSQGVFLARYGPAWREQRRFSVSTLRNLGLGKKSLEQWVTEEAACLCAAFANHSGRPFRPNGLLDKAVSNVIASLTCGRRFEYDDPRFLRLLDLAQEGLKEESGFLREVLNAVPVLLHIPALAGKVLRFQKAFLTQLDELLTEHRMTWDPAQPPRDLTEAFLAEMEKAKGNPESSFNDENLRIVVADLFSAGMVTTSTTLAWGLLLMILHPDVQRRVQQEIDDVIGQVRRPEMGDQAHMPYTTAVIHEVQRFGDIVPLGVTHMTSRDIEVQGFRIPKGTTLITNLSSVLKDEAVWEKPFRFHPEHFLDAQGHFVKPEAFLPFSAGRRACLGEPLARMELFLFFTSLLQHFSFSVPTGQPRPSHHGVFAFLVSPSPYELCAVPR
Cytochrome P450 2C19, sequence (P33261 whole entry): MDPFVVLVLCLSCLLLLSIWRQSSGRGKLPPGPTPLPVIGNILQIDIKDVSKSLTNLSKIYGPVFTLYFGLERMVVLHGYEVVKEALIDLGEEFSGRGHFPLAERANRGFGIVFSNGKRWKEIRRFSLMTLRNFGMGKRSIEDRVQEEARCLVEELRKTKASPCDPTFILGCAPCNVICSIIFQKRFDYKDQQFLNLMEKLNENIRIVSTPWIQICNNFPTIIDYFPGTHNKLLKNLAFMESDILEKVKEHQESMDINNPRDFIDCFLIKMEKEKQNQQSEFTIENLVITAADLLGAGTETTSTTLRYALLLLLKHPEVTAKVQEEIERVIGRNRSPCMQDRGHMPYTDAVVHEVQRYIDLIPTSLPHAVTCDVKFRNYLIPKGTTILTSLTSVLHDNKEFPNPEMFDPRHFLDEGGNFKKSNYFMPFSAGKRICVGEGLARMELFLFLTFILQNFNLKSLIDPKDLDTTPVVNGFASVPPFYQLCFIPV
Cytochrome P450 2C9, sequence (P11712 whole entry): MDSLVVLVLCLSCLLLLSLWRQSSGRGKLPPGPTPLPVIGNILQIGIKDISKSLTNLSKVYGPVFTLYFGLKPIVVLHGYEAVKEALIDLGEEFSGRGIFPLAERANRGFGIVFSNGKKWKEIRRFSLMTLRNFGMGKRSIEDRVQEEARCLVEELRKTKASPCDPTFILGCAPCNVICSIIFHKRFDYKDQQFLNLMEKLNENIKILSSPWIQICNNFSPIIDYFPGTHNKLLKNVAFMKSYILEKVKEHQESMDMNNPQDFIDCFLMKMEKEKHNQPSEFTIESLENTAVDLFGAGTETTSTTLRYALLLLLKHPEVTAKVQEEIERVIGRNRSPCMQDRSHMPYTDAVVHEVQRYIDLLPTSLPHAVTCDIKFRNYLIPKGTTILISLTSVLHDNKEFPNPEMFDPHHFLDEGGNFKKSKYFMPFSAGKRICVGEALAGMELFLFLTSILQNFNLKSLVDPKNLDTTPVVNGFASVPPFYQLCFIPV

Turning to `Cc1cccnc1-c1cc2n(n1)CCN(C(=O)c1ccccc1)C2`, in series [1], the IC50 was above 10000 nM.
Turning to `Cc1ccnc(-c2cc3n(n2)CCN(C(=O)c2ccccc2)C3)c1`, in series [1], the 50% inhibitory concentration (IC50) amounted to 451 nM.
The same measure, in the same setting: in the case of `O=C(c1cccc(C(F)(F)F)c1)N1CCn2nc(-c3ccc(F)cn3)cc2C1` it was 383 nM; in that of `O=C(c1ccccc1Cl)N1CCn2nc(-c3ccccn3)cc2C1`, 2480 nM.
As for `O=C(c1ccc(Cl)cc1)N1CCn2nc(-c3ccccn3)cc2C1`, the IC50 in [1] is 9470 nM.
On the same count and under the same terms, to `O=C(c1ccccc1)N1CCn2nc(-c3ccc(Cl)cn3)cc2C1` belongs 201 nM.
As to `CC(C)(C)c1cc2n(n1)CCN(C(=O)c1ccc3ccccc3c1)C2`, the IC50 in [1] was 477 nM.
The same measure, in the same setting: to `Cc1ccc(-c2cc3n(n2)CCN(C(=O)c2ccccc2)C3)nc1` belongs 244 nM.
On the same count and under the same terms, in the case of `Cc1cc(F)cc(C(=O)N2CCn3nc(-c4ccc(F)cn4)cc3C2)c1` it was 197 nM.
The same measure, in the same setting: in the case of `O=C(c1ccccc1)N1CCn2nc(-c3ccc(F)cn3)cc2C1` it was 164 nM.
Turning to `CN(C)CCCN1c2ccccc2CCc2ccccc21`, the outcome in the series on Mus musculus was Active.
`O=C(c1cccc(Cl)c1)N1CCn2nc(-c3ccccn3)cc2C1`: in series [1], the IC50 is 176 nM.
Still for that read-out and setting: in the case of `N#Cc1cccc(C(=O)N2CCn3nc(-c4ccc(F)cn4)cc3C2)c1` it was above 10000 nM.
For `O=C(c1ccccc1)N1CCn2nc(-c3ccccn3)cc2C1`, the IC50 on Cytochrome P450 2C8 is above 50000 nM; at Cytochrome P450 3A4, above 50000 nM; on Cytochrome P450 2D6, above 50000 nM; at Cytochrome P450 2C19, above 50000 nM; in series [1], 235 nM; on Cytochrome P450 2A6, above 50000 nM. In addition, the IC50 at Cytochrome P450 2C9 and at Cytochrome P450 1A2 was above 50000 nM throughout. The remaining at 0.5 h, 1 µM in series [2] amounted to 92%; in [4], 95%. Moreover, the solubility in [3] and in series [5] was above 100 µg/mL in each case.
Regarding `O=C(c1cccc(Cl)c1)N1CCn2nc(-c3ccc(F)cn3)cc2C1`, the IC50 in [1] amounted to 150 nM.
Turning to `Cc1cccc(-c2cc3n(n2)CCN(C(=O)c2ccccc2)C3)n1`, the IC50 in series [1] came out at 568 nM.
Still for that read-out and setting: to `Cc1cccc(C(=O)N2CCn3nc(-c4ccc(F)cn4)cc3C2)c1` belongs 150 nM; to `O=C(c1cc(Cl)cc(Cl)c1)N1CCn2nc(-c3ccccn3)cc2C1`, 270 nM.
On the same count and under the same terms, in the case of `O=C(c1ccccc1)N1CCn2nc(-c3ccncc3)cc2C1` it was 1290 nM; in that of `O=C(c1cccc(F)c1)N1CCn2nc(-c3ccc(F)cn3)cc2C1`, 257 nM; in that of `O=C(c1ccccc1)N1CCn2nc(-c3cccnc3)cc2C1`, above 10000 nM.
Regarding `O=C(c1ccccc1)N1CCn2nc(-c3ccccc3)cc2C1`, the IC50 in series [1] came to 127 nM. In addition, the solubility in series [3] came out at 2 µg/mL (≈ 6.59 µM); in [5], 4 µg/mL (≈ 13.2 µM).
On to `COc1cccc(C(=O)N2CCn3nc(-c4ccc(F)cn4)cc3C2)c1`, for which the 50% inhibitory concentration (IC50) in series [1] was 482 nM.

The values are drawn from ChEMBL document CHEMBL4425158, “Synthesis, structure-activity relationships and biological evaluation of 4,5,6,7-tetrahydropyrazolopyrazines as metabotropic glutamate receptor 5 negative allosteric modulators” (Bioorg Med Chem Lett, 2016).
